PMC10487437 (International Journal of Molecular Sciences, 2023)
Entries after “also recorded” stand apart in the source; their conditions may differ. Where two headings read alike, the source gives them in different places. Square brackets hold non-standard residues; d marks the D form. Peptide text beside a SMILES is read from it. * marks the point of attachment. Nle = CCCC[C@H](N)C(=O)O; Cbz = O=C(OCc1ccccc1)*

Columns and labels:
[1] = target: T1, 20S brain proteasome, trypsin-like activity (Mus musculus, UniProt P70195+Q9R1P1); assay: Inhibition of 20S brain proteasome hydrolysis of Ac-RLR-AMC (trypsin-like activity); type: biochemical; conditions: [20S] = 50 nM; for IC50: 20 mM Tris-HCl pH 7.5, 1 mM DTT, 1 mM EDTA, [Ac-RLR-AMC] = 50 µM
T1 construct: from tissue; host or cells: mouse brain
Description: (§1) Figure 7 The dependence of 20S proteasome activity on marizomib concentration during hydrolysis of peptide fluorogenic substrates. (a) hydrolysis of model oligoglutamine substrates, Dabcyl-KQ5-PPDE-EDANS (Q5) or Dabcyl-KQ10-PPDE-EDANS (Q10). (b) hydrolysis of standard coumarine-modified peptide substrates. The experimental data are approximated by the function y = A1 + (A2 − A1)/(1 + 10^(LOGx0–x)p), where A1 and A2 are the minimum and maximum values of log10(Ci), respectively, LOGx0 is the logarithm of the EC50 (the concentration giving a response half-way between the upper and lower asymptotes), and p is the Hill coefficient.

[2] = target: T2, 20S brain proteasome, chymotrypsin-like activity (Mus musculus, UniProt O09061+O55234); assay: Inhibition of 20S brain proteasome hydrolysis of Suc-LLVY-AMC (chymotrypsin-like activity); type: biochemical; conditions: 20 mM Tris-HCl pH 7.5, 1 mM DTT, 1 mM EDTA; [20S] = 50 nM; [Suc-LLVY-AMC] = 50 µM
T2 construct: from tissue; host or cells: mouse brain
Description: as §1

[3] = target: T3, 20S brain proteasome, caspase-like activity (Mus musculus, UniProt P70195+Q60692); assay: Inhibition of 20S brain proteasome hydrolysis of Z-LLE-AMC (caspase-like activity); type: biochemical; conditions: [20S] = 50 nM; for IC50: 20 mM Tris-HCl pH 7.5, 1 mM DTT, 1 mM EDTA, [Z-LLE-AMC] = 50 µM
T3 construct: from tissue; host or cells: mouse brain
Description: as §1

20S brain proteasome = test system: T4, 20S brain proteasome; assay: Inhibition of 20S brain proteasome hydrolysis of oligoglutamine-containing FRET substrates; type: biochemical, mouse; conditions: [20S] = 50 nM; for IC50: 20 mM Tris-HCl pH 7.5, 1 mM DTT, 1 mM EDTA
T4 construct: from tissue; host or cells: mouse brain
Description: as §1

[4] = test system: T5, 20S proteasome from murine brain; assay: Specific peptidase activity of 20S proteasome with additives (Table S1); type: biochemical, mouse; conditions: 20S plus additive: 0.5 µM Bortezomib, 0.1 µM MG132, 0.02% SDS or 11S (1:2, mole:mole); 20S alone 2.37 ± 0.13; means ± SEM of three independent experiments run in duplicate
T5 construct: from tissue; host or cells: mouse brain
Description: Characterization of puriﬁed proteasomes
teasomes. […] To conﬁrm that
cathepsin B [48] (Table S1).
reaction mixture for both 20S and 26S.
Table S1. Peptidase activity of the samples of 20S and 26S proteasome from murine brain.
The molar ratio between the proteasome

26S proteasome = 26S proteasome isolated from mouse brains, in Tris-HCl buffer pH = 7.5 with 5 mM ATP-MgCl2; conditions: 37 °C, up to 72 h
20S+11S = assay: 20S proteasome with 11S regulator, both isolated from mouse brains, in Tris-HCl buffer pH = 7.5; conditions: 37 °C, up to 72 h
26S+11S = assay: 26S proteasome with 11S regulator, both isolated from mouse brains, in Tris-HCl buffer pH = 7.5 with 5 mM ATP-MgCl2; conditions: 37 °C, up to 72 h
20S proteasome = 20S proteasome isolated from mouse brains, in 50 mM Tris-HCl, 1 mM EDTA, 1 mM DTT, 10% glycerol, pH = 7.5; conditions: 37 °C, up to 72 h
[5] = fit of dose-response curve (Figure 7), substrate 50 µM
[6] = fit of dose-response curve (Figure 7)

IC50 [1] [nM] | IC50 [2] [nM] | IC50 [3] [nM] | Compound | cleaved bond (26S proteasome) | cleaved bond (20S+11S) | cleaved bond (26S+11S) | cleaved bond (20S proteasome) | further results
111 ± 8 | 9.3 ± 1.5 | 610 ± 40 | C[C@@]12OC(=O)[C@]1([C@@H](O)[C@@H]1C=CCCC1)NC(=O)[C@@H]2CCCl [Marizomib] |  |  |  |  | Hill coefficient, inhibition of Ac-RLR-AMC hydrolysis [1, 5]: (−1.51); Hill coefficient, inhibition of Z-LLE-AMC hydrolysis [3, 5]: (−1.1); Hill coefficient, inhibition of Dabcyl-KQ5 PPD-EDANS hydrolysis (20S brain proteasome; [6]): (−0.69); Hill coefficient, inhibition of Dabcyl-KQ10 PPD-EDANS hydrolysis (20S brain proteasome; [6]): (−0.39); IC50 (20S brain proteasome; substrate Dabcyl-KQ5 PPD-EDANS, read-out: IC50 of Dabcyl-KQ5 PPD-EDANS hydrolysis by 20S brain proteasome): 323 ± 15 nM; IC50 (20S brain proteasome; substrate Dabcyl-KQ10 PPD-EDANS, read-out: IC50 of Dabcyl-KQ10 PPD-EDANS hydrolysis by 20S brain proteasome): 480 ± 20 nM
> 150000 | 100000 ± 10000 | 5100 ± 300 | CCCC[C@H](NC(=O)[C@@H]1CCCN1C(=O)OCc1ccccc1)C(=O)N[C@H](C=O)CC(=O)O [Z-P-nLeu-D-CHO] (Cbz-Pro-[Nle]-Asp-aldehyde) |  |  |  |  | 
 |  |  | Dabcyl-KQ5GD-EDANS | Q2-Q3, major; also recorded: Q4-Q5, major | Q2-Q3, major; also recorded: Q4-Q5, major | Q2-Q3, major; also recorded: Q4-Q5, major | Q2-Q3, major; also recorded: Q4-Q5, major | 
 |  |  | Dabcyl-KQ10PPD-EDANS | Q2-Q3, major; also recorded: Q3-Q4, major | Q2-Q3, major; also recorded: Q3-Q4, major | Q2-Q3, major; also recorded: Q3-Q4, major | Q3-Q4, major, 2 h; also recorded: Q2-Q3, major, 2 h | 

Compound | IC50 [1] [nM] | IC50 [2] [nM] | IC50 [3] [nM] | cleaved bond (26S proteasome) | cleaved bond (20S+11S) | cleaved bond (26S+11S) | cleaved bond (20S proteasome) | further results
CC(C)C[C@@H](C=O)NC(=O)[C@H](CC(C)C)NC(=O)[C@H](CC(C)C)NC(=O)OCc1ccccc1 [Z-LLL-CHO (MG132)] (Cbz-Leu-Leu-Leu-aldehyde) | 2800 ± 300 | 12 ± 3 | 155 ± 5 |  |  |  |  | Specific peptidase activity using Suc-LLVY-AMC [4]: 0.093 ± 0.003 nM/min/µg; IC50 (20S brain proteasome; substrate Dabcyl-KQ5 PPD-EDANS, n.d. = not detected, read-out: IC50 of Dabcyl-KQ5 PPD-EDANS hydrolysis by 20S brain proteasome): 50000 ± 6000 nM; IC50 (20S brain proteasome; substrate Dabcyl-KQ10 PPD-EDANS, n.d. = not detected, read-out: IC50 of Dabcyl-KQ10 PPD-EDANS hydrolysis by 20S brain proteasome): 72000 ± 8000 nM
